Patent US11844822B2, “Solid formulation and method for preventing or reducing coloration thereof” (Elobix AB, priority 2014, dated 2023)

Experiment: Storage coloration test of Elobixibat, additive and their mixtures (visual observation)
Assay type: physicochemical
Excerpt: 1,1-dioxo-3,3-dibutyl-5-phenyl-7-methylthio-8-(N—{(R)-1′-phenyl-1′-[N′-(carboxymethyl)carbamoyl]methyl}carbamoylmethoxy)-2,3,4,5-tetrahydro-1,5-benzothiazepine (Elobixibat) and an additive shown in Table 1 were mixed so that they have a volume ratio of 1:1 based on visual quantities, and thereby, the mixtures according to Reference Examples 3 to 9 were obtained. […] The mixture of each of Reference Examples 3 to 9, only Elobixibat as Reference Example 1, and only Macrogol (polyethylene glycol) 6000 as Reference Example 2 were independently stored in an aluminum bag as an airtight container for 2 weeks under the conditions of 60° C. and 75% relative humidity. After storage, the presence or absence of coloration of the materials of Reference Examples 1 and 2 and the mixtures according to Reference Examples 3 to 9 was visually observed.

Coloration after storage: Before storage → after storage (colour before and after 2 weeks at 60° C. and 75% relative humidity in aluminum bag): white → white
Coloration after storage (stored in aluminum bag (airtight container) for 2 weeks at 60° C. and 75% relative humidity, visually observed): Not observed
Compound: CCCCC1(CCCC)CN(c2ccccc2)c2cc(SC)c(OCC(=O)N[C@@H](C(=O)NCC(=O)O)c3ccccc3)cc2S(=O)(=O)C1 [Reference Example 1, 1,1-dioxo-3,3-dibutyl-5-phenyl-7-methylthio-8-(N—{(R)-1′-phenyl-1′-[N′-(carboxymethyl)carbamoyl]methyl}carbamoylmethoxy)-2,3,4,5-tetrahydro-1,5-benzothiazepine]
